Source: ChEMBL document CHEMBL4699652, “Proline Hinged Amphipathic α-Helical Peptide Sensitizes Gram-Negative Bacteria to Various Gram-Positive Antibiotics” (J Med Chem, 2020)
Activity calls are given as the source filed them. No cut-off for these calls is given here.

What was measured:
Acinetobacter baumannii [1] = assay: Sensitization of rifampicin-induced antimicrobial activity against Acinetobacter baumannii OXA infected in mouse skin infection model assessed as reduction in skin ulcer at 7.5 mg/kg, sc TID for 5 days co-treated with 20 ug/kg, sc rifampicin; type: functional, organism-based; details: time 5.0 day
Escherichia coli [2] = assay: Antimicrobial activity against Escherichia coli ATCC 25922 assessed as reduction in cell viability at 10 to 10000 uM by propidium iodide staining based assay; type: functional, organism-based; details: dose microM 10-10000
Escherichia coli [3] = assay: Sensitization of rifampicin-induced antimicrobial activity against Escherichia coli ATCC 25922 infected in ICR CD1 mouse model of sepsis protection model assessed as increase in mouse survival at 30 mg/kg, ip q1h x 8 hrs for 7 days co-treated with 5 mg/kg, sc q4h x 8 hrs rifampicin; type: functional, organism-based; details: time 7.0 day
Acinetobacter baumannii [4] = assay: Sensitization of linezolid-induced antimicrobial activity against Acinetobacter baumannii OXA infected in mouse skin infection model assessed as reduction in skin ulcer at 7.5 mg/kg, sc TID for 5 days co-treated with 3.1 mg/kg, sc linezolid; type: functional, organism-based; details: time 5.0 day
Cell membrane [5] = assay: Induction of cell membrane fluidity changes in Escherichia coli ATCC 25922 by Laurdan-dye based fluorescence assay; type: subcellular
[6] = Drug localization in cytosol of Escherichia coli at 1 uM incubated for 4 hrs using TAMRA-labeled compound; type: ADME, subcellular
Escherichia coli [7] = assay: Sensitization of colistin-induced antimicrobial activity against NDM-1 producing carbapenem-resistant Escherichia coli infected in ICR CD1 mouse model of sepsis protection model assessed as increase in mouse survival at 12.5 mg/kg, sc QD for 1 days co-treated with 40 mg/kg, sc QD colistin; type: functional; details: time 1 day
Erythrocyte = assay: Hemolytic activity in human red blood cells assessed as induction of hemoglobin release incubated for 4 hrs by microplate reader based assay; type: cell-based
Escherichia coli [8] = assay: Sensitization of linezolid-induced induction of cell killing in Escherichia coli assessed as time needed for bacterial destruction at 8 ug/ml; type: functional; details: dose 8 µg/ml
[9] = Drug localization in membrane of Escherichia coli at 1 uM incubated for 4 hrs using TAMRA-labeled compound; type: ADME, cell membranes, Cell membrane
Lipopolysaccharide (LPS) [10] = assay: Binding affinity to LPS in Escherichia coli D21 assessed as localization in membrane regions at 1 uM using TAMRA-labeled compound by confocal fluorescence microscopy
Lipopolysaccharide (LPS) [11] = assay: Binding affinity to Escherichia coli LPS in POPE/POPG lipid layers containing wild-type LPS by SPR assay
Escherichia coli [12] = assay: Binding affinity to cell membrane using POPC/cholesterol (8/2) by SPR assay
Escherichia coli [13] = assay: Induction of cell lysis in Escherichia coli at 5 uM by transmission electron microscopy; type: functional, organism-based
Escherichia coli [14] = assay: Sensitization of clarithromycin-induced antimicrobial activity against Cst-resistant Escherichia coli isolates assessed as inhibition of bacterial growth at 8 ug/ml incubated for 18 hrs by CLSI based method; type: functional, organism-based; details: dose 8.0 µg/ml
Lipopolysaccharide (LPS) [15] = assay: Binding affinity to LPS in Escherichia coli D21e7 assessed as localization in membrane regions at 1 uM using TAMRA-labeled compound by confocal fluorescence microscopy
Lipopolysaccharide (LPS) [16] = assay: Binding affinity to inner core/lipid A region of LPS in Escherichia coli ATCC 25922 at 1.25 uM incubated for 10 mins by protein-retention expansion microscopy
Escherichia coli [17] = assay: Sensitization of rifampicin-induced antimicrobial activity against Cst-resistant Escherichia coli isolates assessed as inhibition of bacterial growth at 8 ug/ml incubated for 18 hrs by CLSI based method; type: functional, organism-based; details: dose 8.0 µg/ml
Escherichia coli [18] = assay: Sensitization of rifampicin-induced antimicrobial activity against Escherichia coli ATCC 25922 assessed as inhibition of bacterial growth at 4 to 8 ug/ml incubated for 18 hrs by CLSI based method; type: functional; details: dose microg/ml 4-8
Cell membrane [19] = assay: Induction of inner membrane permeability in Escherichia coli at 5 uM incubated for 1 hr by SYTOX Green-staining based flow cytometry analysis; type: subcellular
Lipopolysaccharide (LPS) [20] = assay: Binding affinity to O-antigen-deficient Escherichia coli LPS in POPE/POPG lipid layers containing O-antigen-deficient LPS by SPR assay
[21] = Drug uptake in human HeLa cells at 1 uM incubated for 4 hrs using TAMRA-labeled compound; type: ADME, cell-based
Escherichia coli [22] = assay: Sensitization of rifampicin-induced antimicrobial activity against Escherichia coli ATCC 25922 infected in ICR CD1 mouse neutropenic thigh infection model assessed as reduction in bacterial CFU at 240 mg/kg, ip q1h x 8 hrs co-treated with 20 mg/kg, sc q4h x 8 hrs rifampicin; type: functional, organism-based
Escherichia coli [23] = assay: Sensitization of linezolid-induced antimicrobial activity against Escherichia coli ATCC 25922 infected in ICR CD1 mouse model of sepsis protection model assessed as increase in mouse survival at 30 mg/kg, ip q1h x 8 hrs for 7 days co-treated with 25 mg/kg, sc q4h x 8 hrs linezolid; type: functional, organism-based; details: time 7.0 day
Lipopolysaccharide (LPS) [24] = assay: Binding affinity to LPS in Escherichia coli D21e19 assessed as localization in membrane regions at 1 uM using TAMRA-labeled compound by confocal fluorescence microscopy
Escherichia coli [25] = assay: Sensitization of linezolid-induced antimicrobial activity against Escherichia coli ATCC 25922 infected in ICR CD1 mouse model of sepsis protection model assessed as mouse survival at 30 mg/kg, ip q1h x 8 hrs for 1 days co-treated with 25 mg/kg, sc q4h x 8 hrs linezolid; type: functional; details: ATCC 25922, 24 h, time 1 day
Escherichia coli [26] = assay: Sensitization of linezolid-induced antimicrobial activity against Cst-resistant Escherichia coli isolates assessed as inhibition of bacterial growth at 8 ug/ml incubated for 18 hrs by CLSI based method; type: functional, organism-based; details: dose 8.0 µg/ml
[27] = Induction of cell membrane permeability in POPE/POPG assessed as calcein leakage at 2 to 8 uM; details: dose microM 2-8
Cell membrane [28] = assay: Induction of inner membrane permeability in Escherichia coli assessed as cytoplasmic beta-galactosidase release at 5 uM using ONPG
Escherichia coli [29] = assay: Binding affinity to outer membrane in POPE/POPG lipid layers containing LPS by SPR assay
[30] = Drug uptake in Escherichia coli at 1 uM incubated for 4 hrs using TAMRA-labeled compound; type: ADME
Escherichia coli [31] = assay: Sensitization of rifampicin-induced antimicrobial activity against Escherichia coli ATCC 25922 infected in ICR CD1 mouse model of sepsis protection model assessed as mouse survival at 30 mg/kg, ip q1h x 8 hrs for 1 days co-treated with 5 mg/kg, sc q4h x 8 hrs rifampicin; type: functional; details: ATCC 25922, 24 h, time 1 day
Escherichia coli [32] = assay: Antimicrobial activity against NDM-1 producing carbapenem-resistant Escherichia coli infected in ICR CD1 mouse model of sepsis protection model assessed as increase in mouse survival at 40 mg/kg, sc QD; type: functional, organism-based
Pseudomonas aeruginosa = assay: Antimicrobial activity against multidrug-resistant Pseudomonas aeruginosa infected in ICR CD1 mouse model of sepsis protection model assessed as increase in mouse survival at 40 mg/kg, sc QD; type: functional, organism-based
Cell membrane [33] = assay: Induction of cell membrane fluidity changes in Escherichia coli D21f2 by Laurdan-dye based fluorescence assay; type: subcellular
Cell membrane [34] = assay: Induction of outer membrane permeability in Escherichia coli assessed as periplasmic-beta-lactamase release at 5 uM using CENTA; type: subcellular

With Ac-KLLKLLKKPLKLLK-NH2 the Activity (Acinetobacter baumannii [1]) was “Active”, the Activity (Escherichia coli [2]) was “inactive” and the Activity (Escherichia coli [3]) was “Active”. The Activity (Acinetobacter baumannii [4]) was “Active”, the Activity (Cell membrane [5]) was “Dose-dependent effect” and the Drug uptake [6] was “Not Active”. For the same substance, the Activity (Escherichia coli [7]) was 75%, the HC10 (Erythrocyte) was > 1280 µM and the Time (Escherichia coli [8]) was 8 h. The Drug uptake [9] was “Active”, the Activity (Lipopolysaccharide (LPS) [10]) was “Active” and the Activity (Lipopolysaccharide (LPS) [11]) was “Active”. The Activity (Escherichia coli [12]) was “inactive”, the Activity (Escherichia coli [13]) was “inactive” and the Activity (Escherichia coli [14]) was “Active”. For the same substance, the Activity (Lipopolysaccharide (LPS) [15]) was “Active”, the Activity (Lipopolysaccharide (LPS) [16]) was “Active” and the Activity (Escherichia coli [17]) was “Active”. The “fold change (FC)” value (Escherichia coli [18]) was “<=212”, the Activity (Cell membrane [19]) was “inactive” and the Activity (Lipopolysaccharide (LPS) [20]) was “Active”. For the same substance, the Drug uptake [21] was “Not Active”, the Activity (Escherichia coli [22]) was “Active” and the Activity (Escherichia coli [23]) was “Active”. For the same substance, the Activity (Lipopolysaccharide (LPS) [24]) was “Active”, the survival at 30 mg/kg (Escherichia coli [25]) was 90% and the Activity (Escherichia coli [26]) was “Active”. The Activity [27] was “inactive”, the Activity (Cell membrane [28]) was “inactive” and the Activity (Escherichia coli [29]) was “inactive”. For the same substance, the Drug uptake [30] was “Active”, the survival at 30 mg/kg (Escherichia coli [31]) was 90% and the Activity (Escherichia coli [32]) was “inactive”. The Activity (Pseudomonas aeruginosa) was “inactive”, the Activity (Cell membrane [33]) was “inactive” and the Activity (Cell membrane [34]) was “inactive”.
